Measurements taken from patent US20080039438A1, “1B-Methylcarbapenem Derivative and Process for the Preparation Thereof” (Korea Institute of Science and Technology, priority 2004, published 2008).

Assays:
Type in all cases: cell-based
Streptococcus agalactiae = assay: MIC against clinically isolated aerobic Gram-positive strains; conditions: 15 strains
Escherichia coli TEM = assay: MIC against standard strains (agar dilution); conditions: standard strain Escherichia coli TEM, 37° C., 18 to 20 hours, read-out: Minimum Inhibitory Concentration (MIC)
Escherichia coli 078 = assay: MIC against standard strains (agar dilution); conditions: standard strain Escherichia coli 078, 37° C., 18 to 20 hours, read-out: Minimum Inhibitory Concentration (MIC)
Enterobacter cloacae P99 = assay: MIC against standard strains (agar dilution); conditions: standard strain Enterobacter cloacae P99, 37° C., 18 to 20 hours, read-out: Minimum Inhibitory Concentration (MIC)
Acinetobacter baumannii = assay: MIC against clinically isolated aerobic Gram-negative strains; conditions: 30 strains
Salmonella typhimurium = assay: MIC against standard strains (agar dilution); conditions: Salmonella enterica, standard strain Salmonella typhimurium, 37° C., 18 to 20 hours, read-out: Minimum Inhibitory Concentration (MIC)
Citrobacter freundii = assay: MIC against clinically isolated aerobic Gram-negative strains; conditions: 14 strains
Moraxella catarrhalis = assay: as above; conditions: 24 strains
Morganella morganii = assay: as above; conditions: 15 strains
Bacteroides spp. = assay: MIC against clinically isolated anaerobic Gram-negative strains; conditions: 11 strains
Staphylococcus coagulase = assay: MIC against clinically isolated aerobic Gram-positive strains
Clostridium perfringens = assay: microbe, parasite or virus in culture; conditions: Clostridium perfringens
Klebsiella oxytoca = assay: MIC against clinically isolated aerobic Gram-negative strains; conditions: 15 strains
[1] = system: Bacteroides thetaiotaomicron; assay: MIC against clinically isolated anaerobic Gram-negative strains; conditions: clinically isolated anaerobic Bacteroides thetaiotaomicron, 15 strains
Escherichia coli 1507E = assay: MIC against standard strains (agar dilution); conditions: standard strain Escherichia coli 1507E, 37° C., 18 to 20 hours, read-out: Minimum Inhibitory Concentration (MIC)
Clostridium difficile = assay: MIC against clinically isolated anaerobic Gram-positive strains; conditions: 15 strains
Method: The in vitro antibacterial activities of the sodium 3-carboxylate compound of the present invention prepared in the above Example were measured against standard strains (Table 1), clinically isolated aerobic Gram-positive strains (Table 2), clinically isolated aerobic Gram-negative strains (Table 3), clinically isolated anaerobic Gram-positive strains (Table 4) and clinically isolated anaerobic Gram-negative strains (Table 5) using Gram-positive bacteria such as Streptococcus and Staphylococcus, Gram-negative bacteria such as Escherichia, Salmonella, Krebsiella and Enterobacter. Imipenem (IPM), meropenem (MPM) and ertapenem (EPM) were used as control groups.
The results are shown in Tables 1 to 5, and MIC50 and MIC90 represent the concentrations at which the test strain's growth was inhibited to the extents of 50% and 90%, respectively.

Streptococcus pneumoniae = assay: MIC against clinically isolated aerobic Gram-positive strains; conditions: 22 strains
Peptostreptococcus spp. = assay: MIC against clinically isolated anaerobic Gram-positive strains; conditions: 27 strains
[2] = system: Staphylococcus aureus 285; assay: MIC against standard strains (agar dilution); conditions: standard strain Staphylococcus aureus 285, 37° C., 18 to 20 hours, read-out: Minimum Inhibitory Concentration (MIC)
[3] = system: Staphylococcus aureus 503; assay: MIC against standard strains (agar dilution); conditions: standard strain Staphylococcus aureus 503, 37° C., 18 to 20 hours, read-out: Minimum Inhibitory Concentration (MIC)
Klebsiella pneumoniae = assay: MIC against clinically isolated aerobic Gram-negative strains; conditions: 30 strains
[4] = system: Streptococcus pyogenes 77A; assay: MIC against standard strains (agar dilution); conditions: standard strain Streptococcus pyogenes 77A, 37° C., 18 to 20 hours, read-out: Minimum Inhibitory Concentration (MIC)
Bacteroides fragilis = assay: MIC against clinically isolated anaerobic Gram-negative strains; conditions: 34 strains
Escherichia coli DC 2 = assay: MIC against standard strains (agar dilution); conditions: DC2; standard strain Escherichia coli DC 2; agar, 37° C., 18 to 20 hours; read-out: Minimum Inhibitory Concentration (MIC)
Proteus vulgaris = assay: MIC against clinically isolated aerobic Gram-negative strains; conditions: 15 strains
[5] = system: Enterobacter cloacae 1321E; assay: MIC against standard strains (agar dilution); conditions: standard strain Enterobacter cloacae 1321E, 37° C., 18 to 20 hours, read-out: Minimum Inhibitory Concentration (MIC)
Haemophilus influenzae = assay: MIC against clinically isolated aerobic Gram-negative strains; conditions: 24 strains
Proteus mirabilis = assay: as above; conditions: 15 strains

C[C@@H](O)[C@H]1C(=O)N2C(C(=O)O)=C(S[C@@H]3CN[C@H](/C=C/c4cc(C(=O)O)no4)C3)[C@H](C)[C@H]12 [Example, (1R,5S,6S,8R,3′S,5′S)-2-{5′-[(E)-2-(3-carboxylic acid or sodium carboxylate-5-isoxazolo)ethenyl]pyrrolidin-3′-ylthio}-6-(1-hydroxyethyl)-1-methylcarbapen-2-em-3-carboxylic acid]
MIC50 (Streptococcus agalactiae): 0.008 µg/mL | MIC90 (Streptococcus agalactiae): 0.015 µg/mL | MIC Range (Streptococcus agalactiae): 0.008 to 0.015 µg/mL | MIC (Escherichia coli TEM): 0.025 µg/mL | MIC (Escherichia coli 078): 0.025 µg/mL | MIC (Enterobacter cloacae P99): 0.098 µg/mL | MIC50 (Acinetobacter baumannii): 8 µg/mL | MIC90 (Acinetobacter baumannii): 64 µg/mL | MIC Range (Acinetobacter baumannii): 2 to 128 µg/mL | MIC (Salmonella typhimurium): 0.049 µg/mL | MIC50 (Citrobacter freundii): 0.03 µg/mL | MIC90 (Citrobacter freundii): 0.12 µg/mL | MIC Range (Citrobacter freundii): 0.015 to 0.25 µg/mL | MIC50 (Moraxella catarrhalis): 0.03 µg/mL | MIC90 (Moraxella catarrhalis): 0.06 µg/mL | MIC Range (Moraxella catarrhalis): 0.015 to 0.06 µg/mL | MIC50 (Morganella morganii): 0.03 µg/mL | MIC90 (Morganella morganii): 0.06 µg/mL | MIC Range (Morganella morganii): 0.03 to 0.12 µg/mL | MIC50 (Bacteroides spp.): 1 µg/mL | MIC90 (Bacteroides spp.): 1 µg/mL | MIC Range (Bacteroides spp.): 1 to 2 µg/mL | MIC50 (Staphylococcus coagulase; Staphylococcus): 0.12 µg/mL | MIC90 (Staphylococcus coagulase; Staphylococcus): 0.25 µg/mL | MIC Range (Staphylococcus coagulase; clinically isolated Staphylococcus coagulase, 22 strains): 0.06 to 0.5 µg/mL | MIC50 (Clostridium perfringens): 0.06 µg/mL | MIC90 (Clostridium perfringens): 0.12 µg/mL | MIC50 (Klebsiella oxytoca): 0.03 µg/mL | MIC90 (Klebsiella oxytoca): 0.03 µg/mL | MIC Range (Klebsiella oxytoca): 0.015 to 0.25 µg/mL | MIC Range [1]: 0.5 to 8 µg/mL | MIC50 ([1]; read-out: MIC50): 1 µg/mL | MIC90 ([1]; read-out: MIC90): 4 µg/mL | MIC (Escherichia coli 1507E): 0.025 µg/mL | MIC Range (Clostridium difficile): 2 to 4 µg/mL | MIC50 (Clostridium difficile; Clostridioides difficile): 4 µg/mL | MIC90 (Clostridium difficile; Clostridioides difficile): 4 µg/mL | MIC50 (Streptococcus pneumoniae): 0.008 µg/mL | MIC90 (Streptococcus pneumoniae): 0.12 µg/mL | MIC Range (Streptococcus pneumoniae): 0.008 to 0.25 µg/mL | MIC50 (Peptostreptococcus spp.): 0.12 µg/mL | MIC90 (Peptostreptococcus spp.): 4 µg/mL | MIC Range (Peptostreptococcus spp.): 0.06 to 4 µg/mL | MIC [2]: 0.195 µg/mL | MIC [3]: 0.098 µg/mL | MIC50 (Klebsiella pneumoniae): 0.03 µg/mL | MIC90 (Klebsiella pneumoniae): 0.12 µg/mL | MIC Range (Klebsiella pneumoniae): 0.015 to 0.25 µg/mL | MIC [4]: 0.049 µg/mL | MIC50 (Bacteroides fragilis): 0.5 µg/mL | MIC90 (Bacteroides fragilis): 1 µg/mL | MIC Range (Bacteroides fragilis): 0.25 to 4 µg/mL | MIC (Escherichia coli DC 2): 0.025 µg/mL | MIC50 (Proteus vulgaris): 0.06 µg/mL | MIC90 (Proteus vulgaris): 0.06 µg/mL | MIC Range (Proteus vulgaris): 0.03 to 0.06 µg/mL | MIC [5]: 0.025 µg/mL | MIC50 (Haemophilus influenzae): 0.25 µg/mL | MIC90 (Haemophilus influenzae): 4 µg/mL | MIC Range (Haemophilus influenzae): 0.25 to 8 µg/mL | MIC50 (Proteus mirabilis): 0.03 µg/mL | MIC90 (Proteus mirabilis): 0.06 µg/mL | MIC Range (Proteus mirabilis): 0.015 to 0.06 µg/mL
